From patent US6469120B1, “Water-stabilized organosilane compounds and methods for using the same” (BioShield Technologies, Inc., priority 1997, dated 2002)

Assays:
[1] = Stabilization of aqueous Dow Corning 5772 siloxane solutions by polyols, clarity monitored over time; assay type: physicochemical
Method: However, those skilled in the art will recognize that for practicality and commercial applications, the longer the period for which a stable composition can be achieved the better. Accordingly, a stock of solutions of known concentrations of the stabilizer is prepared in deionized water. A known amount of the solution, and in some cases additional deionized water and the siloxane were mixed in a vial. The vial was sealed with parafilm to prevent evaporation, and stored at ambient temperature.

[2] = no stabilizer; cited from earlier work
[3] = 5% siloxane solution with 0.94% to 19% polyol, ambient temperature

O=C(OC[C@H]1O[C@@H](OC(=O)c2cc(O)c(O)c(OC(=O)c3cc(O)c(O)c(O)c3)c2)[C@H](OC(=O)c2cc(O)c(O)c(OC(=O)c3cc(O)c(O)c(O)c3)c2)[C@@H](OC(=O)c2cc(O)c(O)c(OC(=O)c3cc(O)c(O)c(O)c3)c2)[C@@H]1OC(=O)c1cc(O)c(O)c(OC(=O)c2cc(O)c(O)c(O)c2)c1)c1cc(O)c(O)c(OC(=O)c2cc(O)c(O)c(O)c2)c1 [tannic acid]
stabilization of siloxane solution ([1]; tannic acid siloxane solution): not stabilized to any significant degree

O=CC=O [glyoxal]
time solution remained clear ([1]; 9% siloxane with 4.1% to 18% glyoxal, aqueous): at least three

O=C1O[C@H]([C@@H](O)CO)C(O)=C1O [L-ascorbic acid]
time solution remained clear ([1]; 10% siloxane solution with 0.85% to 17% L-ascorbic acid): at least five | clarity of solution after two days ([1]; as much as 18% siloxane with as little as 0.79% L-ascorbic acid): remained clear

CCCCCCCCCCCCCCCCCC[N+](C)(C)CCC[Si](OC)(OC)OC.[Cl-] [3-(trimethoxysilyl)propyl-dimethyloctadecyl ammonium chloride]
time until mixture with water begins to lose effectiveness [2]: four to eight

OC[C@@H](O)[C@@H](O)[C@H](O)[C@H](O)CO [mannitol]
time solution remained clear [1, 3]: seven | solubility of polyol in the siloxane solution ([1]; high mannitol concentration, 5% siloxane solution): not completely soluble

OC[C@H]1O[C@@](CO)(O[C@H]2O[C@H](CO)[C@@H](O)[C@H](O)[C@H]2O)[C@@H](O)[C@@H]1O [sucrose]
time solution remained clear [1, 3]: at least seven | time solution remained clear ([1]; another sample at approximately 5% active siloxane): at least eight
